target: T1, 20S proteasome, chymotrypsin-like activity (β5 subunit) (Oryctolagus cuniculus, UniProt G1T4Q9); test: fluorogenic Suc-LLVY-AMC hydrolysis by purified […] proteasome, […] h; format: biochemical
T1 sequence (G1T4Q9 1-263): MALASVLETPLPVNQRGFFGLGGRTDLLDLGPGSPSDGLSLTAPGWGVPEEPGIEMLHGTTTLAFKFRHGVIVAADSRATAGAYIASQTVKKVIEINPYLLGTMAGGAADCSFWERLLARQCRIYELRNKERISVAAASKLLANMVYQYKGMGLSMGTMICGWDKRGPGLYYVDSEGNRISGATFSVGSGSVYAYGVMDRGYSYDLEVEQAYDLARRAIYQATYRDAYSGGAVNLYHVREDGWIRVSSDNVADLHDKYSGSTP

Compound | IC50 [µM]
COc1cccc2c1[O][Cu-3]13([O]C(=O)C(CCSC)[N+]1=C2)[n+]1cccc2ccc4ccc[n+]3c4c21 (stereo not shown) [C1, [Cu(L1)(Phen)]·9H2O] | 13.3
COc1cccc2c1[O][Cu-3]13([O]C(=O)[C@H](CCSC)[N+]1=C2)[n+]1ccccc1-c1cccc[n+]13 [C2, [Cu(L1)(Bpy)]·3H2O] | 46.5
CC(C)[C@H]1C(=O)[O][Cu-3]23([O]c4ccc5ccccc5c4C=[N+]12)[n+]1cccc2ccc4ccc[n+]3c4c21 [C3, [Cu(L2)(Phen)]·3H2O] | 11.3
CC(C)[C@H]1C(=O)[O][Cu-3]23([O]c4ccc5ccccc5c4C=[N+]12)[n+]1ccccc1-c1cccc[n+]13 [C4, [Cu(L2)(Bpy)]·3H2O] | 42.5

Reference: publication PMC3676669 (Journal of inorganic biochemistry, 2012)
